Earlier results, collected in US20260183312A1, “A ROOM-TEMPERATURE STABLE, UNBUFFERED FORMULATION OF ROCURONIUM BROMIDE INJECTION FOR INTRAVENOUS ADMINISTRATION AND A METHOD THEREOF” (MAIVA PHARMA PRIVATE LIMITED, priority 2023, published 2026).

SMILES: C=CC[N+]1([C@H]2C[C@H]3[C@@H]4CC[C@H]5C[C@H](O)[C@@H](N6CCOCC6)C[C@]5(C)[C@H]4CC[C@]3(C)[C@H]2OC(C)=O)CCCC1 [Rocuronium, Rocuronium bromide]
- Patients with severe burning pain on administration: up to 80%
